The text below walks through data of ChEMBL document CHEMBL1641532, “Thiophene and bioisostere derivatives as new MMP12 inhibitors” (Bioorg Med Chem Lett, 2011).

In general, IC50 refers to the concentration at which inhibition is half-maximal.

In this assay the target is Macrophage metalloelastase (Homo sapiens, UniProt P39900). In words: Inhibition of MMP-12 catalytic domain.
Macrophage metalloelastase, sequence (P39900 whole entry, the tested form may be a part): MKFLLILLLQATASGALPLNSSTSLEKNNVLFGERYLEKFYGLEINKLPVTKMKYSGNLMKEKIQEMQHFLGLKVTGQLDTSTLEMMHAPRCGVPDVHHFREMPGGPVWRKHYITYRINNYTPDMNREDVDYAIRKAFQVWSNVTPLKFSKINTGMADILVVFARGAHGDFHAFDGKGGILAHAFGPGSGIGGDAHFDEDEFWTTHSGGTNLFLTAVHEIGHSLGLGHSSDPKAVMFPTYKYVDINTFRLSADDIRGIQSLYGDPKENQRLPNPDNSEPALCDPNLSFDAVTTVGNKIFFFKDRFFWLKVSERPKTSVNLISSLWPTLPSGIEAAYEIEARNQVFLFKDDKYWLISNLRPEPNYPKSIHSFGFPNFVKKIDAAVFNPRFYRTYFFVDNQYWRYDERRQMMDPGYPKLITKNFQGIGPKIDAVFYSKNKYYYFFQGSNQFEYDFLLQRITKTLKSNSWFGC
On to `O=C(NC[C@H]1CC[C@H](C(=O)O)CC1)c1cc(-c2ccc(OC(F)(F)F)cc2)ns1`, for which the IC50 came to 3600 nM.
Then `O=C(O)C[C@@H](NC(=O)c1cc(-c2ccc(OC(F)(F)F)cc2)c(F)s1)c1ccccc1`, with 200 nM; and `O=C(NC[C@H]1CC[C@H](C(=O)O)CC1)c1cc(-c2ccc(OC(F)(F)F)cc2)sn1`, with 31000 nM; and `NC(=O)C[C@@H](NC(=O)c1cc(-c2ccc(OC(F)(F)F)cc2)c(F)s1)c1ccccc1`, with 85 nM.
For the molecule `O=C(O)C[C@@H](NC(=O)c1cc(-c2ccc(-c3ccncc3)cc2)c(F)s1)c1ccccc1`, it took 13 nM to reach half-maximal inhibition (IC50).
In the case of `O=C(NC[C@H]1CC[C@H](C(=O)O)CC1)c1cc(-c2ccc(OC(F)(F)F)cc2)cs1` it was 400 nM.
